Among the data in US20130171098A1, “Cyclopropyl Fused Indolobenzazepine HCV NS5B Inhibitors” (priority 2006, published 2013) are EC50 and IC50 values, retold here.

Usually EC50 stands for the concentration giving half of the maximal effect. A lower EC50 goes with greater potency. As usually defined, the IC50 is the concentration that inhibits the measured activity by half. Lower therefore signals greater potency in that assay.

One assay relates to HCV replicon cells. The assay can be described thus: HCV replicon FRET / luciferase assay. It is filed as cell-based, Hepatitis C virus. Particulars: Hepatitis C virus. On the procedure: The HCV FRET screening assay was performed in 96-well cell culture plates. The FRET peptide (Anaspec, Inc.) (Taliani et al., Anal. Biochem. 1996, 240, 60-67) contains a fluorescence donor, EDANS, near one end of the peptide and an acceptor, DABCYL, near the other end. The fluorescence of the peptide is quenched by […] resonance energy transfer (RET) between the donor and the acceptor, but as the NS3 protease cleaves the peptide the products are released from RET quenching and the fluorescence of the donor becomes apparent. The assay reagent was made as follows: 5× cell Luciferase cell culture lysis reagent from Promega (#E153A) diluted to 1× with dH2O, NaCl added to 150 mM final, the FRET peptide diluted to 20 μM final from a 2 mM stock.
To prepare plates, HCV replicon cells, with or without a Renilla luciferase reporter gene, were trypsinized and plated in a 96-well plate with titrated test compounds added in columns 3 through 12; columns 1 and 2 contained a control compound (HCV control inhibitor), and the bottom row contained cells with DMSO only. The plates were then placed in a CO2 incubator at 37° C.
Subsequent to addition of the test compounds described above (FRET Assay Preparation), at various times the plate was removed and Alamar blue solution (Trek Diagnostics, #00-100) was added to measure cellular toxicity. After reading in a Cytoflour 4000 instrument (PE Biosystems), plates were rinsed with PBS and then used for FRET assay by the addition of 30 ul of the FRET peptide assay reagent described above (FRET Assay Preparation) per well. The plate was then placed into the Cytoflour 4000 instrument which had been set to 340 excite/490 emission, automatic mode for up to 20 cycles and the plate read in a kinetic mode. Typically, the signal to noise using an endpoint analysis after the reads was at least three-fold. Alternatively, after Alamar blue reading, plates were rinsed with PBS, then used for luciferase assay using the Promega Dual-Glo Luciferase Assay System or the Promega EnduRen Live Cell Substrate assay.
Compound analysis was performed by quantification of the relative HCV replicon inhibition and the relative cytotoxicity values. To calculate cytoxicity values, the average Alamar Blue fluorescence signals from the control wells were set as 100% non-toxic. The individual signals in each of the compound test wells were then divided by the average control signal and multiplied by 100% to determine […]. To calculate the HCV replicon inhibition values, an average background value was obtained from the two wells containing the highest amount of HCV control inhibitor at the end of the assay period. These numbers were similar to those obtained from naïve Huh-7 cells. The background numbers were then subtracted from the average signal obtained from the control wells and this number was used as 100% activity. The individual signals in each of the compound test wells were then divided by the averaged control values after background subtraction and multiplied by 100% to determine percent activity. […] The two numbers generated for the compound plate, percent cytoxicity and percent activity, were used to determine compounds of interest for further analysis.
(In antiviral work, replicon cells carry a viral genome segment that copies itself.)

The target of assay [1] is T1, HCV NS5B RdRp genotype 1b (Hepatitis C virus genotype 1b, UniProt Q9WMX2).
T1 construct: The protein was expressed with an 18 amino acid C-terminal truncation to enhance the solubility; made in house; host or cells: E. coli BL21(DE3), pET21a vector
T1 sequence (Q9WMX2 2420-2992): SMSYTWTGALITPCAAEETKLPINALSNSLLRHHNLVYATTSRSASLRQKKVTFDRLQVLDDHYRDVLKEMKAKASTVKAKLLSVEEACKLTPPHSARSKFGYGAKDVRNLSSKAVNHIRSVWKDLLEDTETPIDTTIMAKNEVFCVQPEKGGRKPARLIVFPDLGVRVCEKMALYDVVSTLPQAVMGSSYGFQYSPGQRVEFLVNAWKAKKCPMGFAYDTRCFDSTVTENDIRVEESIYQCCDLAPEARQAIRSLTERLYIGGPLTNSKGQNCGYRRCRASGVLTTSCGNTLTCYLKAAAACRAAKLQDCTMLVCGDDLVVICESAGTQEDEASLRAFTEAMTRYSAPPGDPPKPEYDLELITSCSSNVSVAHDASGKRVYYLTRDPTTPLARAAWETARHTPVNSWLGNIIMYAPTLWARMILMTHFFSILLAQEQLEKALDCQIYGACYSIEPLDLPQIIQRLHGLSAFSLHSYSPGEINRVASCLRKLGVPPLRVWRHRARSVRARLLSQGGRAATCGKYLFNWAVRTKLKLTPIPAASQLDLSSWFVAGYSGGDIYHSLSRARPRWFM
The assay can be described thus: HCV NS5B RdRp enzyme assay (standard / modified). The class given is biochemical. On the procedure: HCV NS5B RdRp Cloning, Expression, and Purification.
The cDNA encoding the NS5B protein of HCV, genotype 1b, was cloned into the pET21a expression vector. The protein was expressed with an 18 amino acid C-terminal truncation to enhance the solubility. The E. coli competent cell line BL21(DE3) was used for expression of the protein. Cultures were grown at 37° C. for ˜4 hours until the cultures reached an optical density of 2.0 at 600 nm. The cultures were cooled to 20° C. and induced with 1 mM IPTG. Fresh ampicillin was added to a final concentration of 50 μg/ml and the cells were grown overnight at 20° C.
The lysis buffer consisted of 20 mM Tris-HCl, pH 7.4, 500 mM NaCl, 0.5% triton X-100, 1 mM DTT, 1 mM EDTA, 20% glycerol, 0.5 mg/ml lysozyme, 10 mM MgCl2, 15 ug/ml deoxyribonuclease I, and Complete TM protease inhibitor tablets (Roche). After addition of the lysis buffer, frozen cell pellets were resuspended using a tissue homogenizer. To reduce the viscosity of the sample, aliquots of the lysate were sonicated on ice using a microtip attached to a Branson sonicator. The sonicated lysate was centrifuged at 100,000×g for 1 hr at 4° C. and filtered through a 0.2 μm filter unit (Corning).
The protein was purified using two sequential chromatography steps: Heparin sepharose CL-6B and polyU sepharose 4B (Pharmacia). The chromatography buffers were identical to the lysis buffer but contained no lysozyme, deoxyribonuclease I, MgCl2 or protease inhibitor and the NaCl concentration of the buffer was adjusted according to the requirements for charging the protein onto the column. Each column was eluted with a NaCl gradient which varied in length from 5-50 column volumes depending on the column type. […] The enzyme was aliquoted and stored at −80° C.
Standard HCV NS5B RdRp Enzyme Assay.
HCV RdRp genotype 1b assays were run in a final volume of 60 μl in 96 well plates (Corning 3600). The assay buffer is composed of 20 mM Hepes, pH 7.5, 2.5 mM KCl, 2.5 mM MgCl2, 1 mM DTT, 1.6 U RNAse inhibitor (Promega N2515), 0.01 mg/ml BSA (Sigma B6917), and 2% glycerol. All compounds were serially diluted (3-fold) in DMSO and diluted further in water such that the final concentration of DMSO in the assay was 2%. HCV RdRp genotype 1b enzyme was used at a final concentration of 28 nM. A polyA template was used at 6 nM, and a biotinylated oligo-dT12 primer was used at 180 nM final concentration. Template was obtained commercially (Amersham 27-4110). Biotinylated primer was prepared by Sigma Genosys. 3H-UTP was used at 0.6 μCi (0.29 μM total UTP). Reactions were initiated by the addition of enzyme, incubated at 30° C. for 60 min, and stopped by adding 25 μl of 50 mM EDTA containing SPA beads (4 μg/μl, Amersham RPNQ 0007). Plates were read on a Packard Top Count NXT after >1 hr incubation at room temperature.
Modified HCV NS5B RdRp Enzyme Assay.
A modified enzyme assay was performed essentially as described for the standard enzyme assay except for the following: The biotinylated oligo dT12 primer was precaptured on streptavidin-coated SPA beads by mixing primer and beads in assay buffer and incubating at room temperature for one hour. Unbound primer was removed after centrifugation. The primer-bound beads were resuspended in 20 mM Hepes buffer, pH 7.5 and used in the assay at final concentrations of 20 nM primer and 0.67 μg/μl beads. Order of addition in the assay: enzyme (1.75 nM) was added to diluted compound followed by the addition of a mixture of template (0.36 nM), 3H-UTP (0.6 μCi, 0.29 μM), and primer-bound beads, to initiate the reaction; concentrations given are final. Reactions were allowed to proceed for 4 hours at 30° C.
IC50 values for compounds were determined using seven different [I].

`COc1ccc2c(c1)C1CC1(C(=O)N1CC3CCC(C1)N3C)Cn1c-2c(C2CCCCC2)c2ccc(C(=O)NS(=O)(=O)N(C)C)cc21` (centres unmarked): the EC50 with HCV replicon cells was 1 to 500 nM. Further, the IC50 in assay [1] is 1 to 500 nM. In the assay with HCV replicon cells, `COc1ccc2c(c1)C1CC1(C(=O)N1[C@@H]3CC[C@H]1CN(S(C)(=O)=O)C3)Cn1c-2c(C2CCCCC2)c2ccc(C(=O)NS(=O)(=O)N(C)C)cc21` (some centres unmarked) showed a concentration for a half-maximal effect (EC50) of 1 to 500 nM. This compound also gave an IC50 in assay [1] of 1 to 500 nM. Regarding `CN1CC2CCC(C1)N2C(=O)C1=Cc2c(OC(F)(F)F)cccc2-c2c(C3CCCCC3)c3ccc(C(=O)NS(=O)(=O)N(C)C)cc3n2C1`, in the assay on HCV replicon cells, the EC50 is greater than 500 nM. The IC50 in assay [1] was greater than 500 nM.

In assay [1], `COC(=O)c1ccc2c(C3CCCCC3)c3n(c2c1)CC1(C(=O)N2C4CCC2CN(C)C4)CC1c1c(OC)cccc1-3` (centres unmarked) showed an IC50 greater than 500 nM. `COc1cccc2c1C1CC1(C(=O)N1C3CCC1CN(C)C3)Cn1c-2c(C2CCCCC2)c2ccc(C(=O)O)cc21` (centres unmarked): in the assay with HCV replicon cells, the EC50 is 1 to 500 nM. In assay [1], this compound gave an IC50 of 1 to 500 nM. `COC(=O)c1ccc2c(C3CCCCC3)c3n(c2c1)CC1(C(=O)N2C4CCC2CN(C)C4)CC1c1c(OC(F)(F)F)cccc1-3` (centres unmarked) showed an IC50 in assay [1] greater than 500 nM. `COc1cccc2c1C1CC1(C(=O)N1C3CCC1CN(C)C3)Cn1c-2c(C2CCCCC2)c2ccc(C(=O)NS(=O)(=O)N(C)C)cc21` (centres unmarked) returned an EC50 with HCV replicon cells greater than 500 nM. The compound also gave an IC50 in assay [1] of 1 to 500 nM. In the assay on HCV replicon cells, `CN1CC2CCC(C1)N2C(=O)C12CC1c1c(OC(F)(F)F)cccc1-c1c(C3CCCCC3)c3ccc(C(=O)O)cc3n1C2` (centres unmarked) had an EC50 of 1 to 500 nM. The IC50 in assay [1] fell in the range of 1 to 500 nM. Compound `CN1CC2CCC(C1)N2C(=O)C12CC1c1c(OC(F)(F)F)cccc1-c1c(C3CCCCC3)c3ccc(C(=O)NS(=O)(=O)N(C)C)cc3n1C2` (centres unmarked) came in with an EC50 in the assay with HCV replicon cells of 1 to 500 nM. In assay [1], this compound showed an IC50 of 1 to 500 nM. `COc1ccc2c(c1)C1CC1(C(=O)N1[C@@H]3CC[C@H]1CN(C(=O)N(C)C)C3)Cn1c-2c(C2CCCCC2)c2ccc(C(=O)NS(=O)(=O)N(C)C)cc21` (some centres unmarked) came in with an EC50 with HCV replicon cells of 1 to 500 nM. In assay [1], the IC50 was in the range of 1 to 500 nM.

In turn, `COc1ccc2c(c1)C1CC1(C(=O)N1[C@@H]3CC[C@H]1CN(C(=O)OCc1ccccc1)C3)Cn1c-2c(C2CCCCC2)c2ccc(C(=O)NS(=O)(=O)N(C)C)cc21` (some centres unmarked) gave an EC50 in the assay with HCV replicon cells of 1 to 500 nM. Moreover, the IC50 in assay [1] was in the range of 1 to 500 nM. The compound `COc1ccc2c(c1)C1CC1(C(=O)N1[C@@H]3CC[C@H]1CN(Cc1ccccc1)C3)Cn1c-2c(C2CCCCC2)c2ccc(C(=O)NS(=O)(=O)N(C)C)cc21` (some centres unmarked) yielded an EC50 in the assay on HCV replicon cells of 1 to 500 nM. The same compound came in with a half-maximal inhibitory concentration (IC50) in assay [1] of 1 to 500 nM.

Compound `COc1ccc2c(c1)C1CC1(C(=O)N1[C@@H]3CC[C@H]1CN(C(C)=O)C3)Cn1c-2c(C2CCCCC2)c2ccc(C(=O)NS(=O)(=O)N(C)C)cc21` (some centres unmarked) showed an EC50 with HCV replicon cells of 1 to 500 nM. Also, in assay [1], the IC50 fell in the range of 1 to 500 nM. Compound `COc1ccc2c(c1)[C@@H]1C[C@]1(C(=O)N1[C@@H]3CC[C@H]1CN(S(C)(=O)=O)C3)Cn1c-2c(C2CCCCC2)c2ccc(C(=O)NS(=O)(=O)N(C)C)cc21` had an EC50 with HCV replicon cells of 1 to 500 nM. Further, in assay [1], the IC50 lay within 1 to 500 nM.
